Measurements as given in patent US20260265189A1, “NOVEL COMPOUND, AND PHARMACEUTICAL COMPOSITION COMPRISING SAME AS ACTIVE INGREDIENT” (SAPIENSBIO INC., priority 2022, published 2026).

What follows are molecules tested on α-SMA expression in MRC5 cells (assay: inhibition of α-SMA expression in MRC5 cells, image screening method). Conditions: Homo sapiens; MRC5, compound 10 μM, TGF-β1 5 ng/mL, 72 hours, relative to TGF-β1 alone; read-out: Inhibitory activity (α-SMA expression inhibition).
Format: cell-based
Description: The ability of the compounds according to the present invention to inhibit the expression of α-SMA, which is a biomarker for pulmonary fibrosis, was evaluated by an image screening method. MRC5 cells were treated with the compound (10 μM) or DMSO under the condition of TGF-31 (5 ng/mL). 72 hours later, the cells were fixed with a 4% formaldehyde solution, treated with a 0.1% Triton-x100 solution, and treated with a 1% BSA solution to mask non-specific binding caused by antibodies. Anti-α-SMA-FITC (Sigma Aldrich) and anti-GAPDH (Cell Signaling Technology) were used as primary antibodies, and anti-mouse-TRITC was used as a secondary antibody. Imaging and analysis of the results were performed using Cytation5_Gen5_Version 3.12.08 (Bio Tek). Relative to the α-SMA expression level when TGF-31 was treated alone, the α-SMA expression level when both the compound and TGF-31 were treated was calculated as the ability of α-SMA expression inhibition of the corresponding compound.
Work on `O=C(N[C@H]1CCNC1)N1CCN(c2cnccn2)c2ccccc21` [Compound 80, (S)-4-(pyrazin-2-yl)-N-(pyrrolidin-3-yl)-3,4-dihydroquinoxaline-1(2H)-carboxamide] yielded an inhibition at 10 µM of 10 to 30%. For `CC(C)N1CC[C@H](NC(=O)N2CCN(c3cnccn3)c3ccccc32)C1` [Compound 81, (S)-N-(1-isopropylpyrrolidin-3-yl)-4-(pyrazin-2-yl)-3,4-dihydroquinoxaline-1(2H)-carboxamide], the inhibition at 10 µM was 10 to 30%. `CC(C)CN1CCC(NC(=O)N2CCN(c3cnccn3)c3ccccc32)CC1` [Compound 82, N-(1-isobutylpiperidin-4-yl)-4-(pyrazin-2-yl)-3,4-dihydroquinoxaline-1(2H)-carboxamide] gave an inhibition at 10 µM of 10 to 30%. With `CC(C)N1CCC(NC(=O)N2CCN(c3cnccn3)c3ccccc32)CC1` [Compound 83, N-(1-isopropylpiperidin-4-yl)-4-(pyrazin-2-yl)-3,4-dihydroquinoxaline-1(2H)-carboxamide] the inhibition at 10 µM was 10 to 30%. In the case of `O=C(N[C@@H]1CCNC1)N1CCN(Cc2ccccc2)c2ccccc21` [Compound 84, (R)-4-benzyl-N-(pyrrolidin-3-yl)-3,4-dihydroquinoxaline-1(2H)-carboxamide], the inhibition at 10 µM is reported as 30 to 50%. Molecule `N[C@H]1CCN(C(=O)N2CCN(Cc3ccccc3)c3ccccc32)C1` [Compound 85, (S)-(3-aminopyrrolidin-1-yl)(4-benzyl-3,4-dihydroquinoxalin-1(2H)-yl)methanone] has an inhibition at 10 µM of 30 to 50%. In the case of `CN[C@H]1CCN(C(=O)N2CCN(Cc3ccccc3)c3ccccc32)C1` [Compound 86, (S)-(4-benzyl-3,4-dihydroquinoxalin-1(2H)-yl)(3-(methylamino)pyrrolidin-1-yl)methanone], the inhibition at 10 µM is reported as 10 to 30%. In the case of `CN1CC[C@@H](NC(=O)N2CCN(Cc3ccccc3F)c3ccccc32)C1` [Compound 87, (R)-4-(2-fluorobenzyl)-N-(1-methylpyrrolidin-3-yl)-3,4-dihydroquinoxaline-1(2H)-carboxamide], the inhibition at 10 µM is reported as 50 to 70%. `CN1CCC(NC(=O)N2CCN(Cc3ccccc3F)c3ccccc32)CC1` [Compound 88, 4-(2-fluorobenzyl)-N-(1-methylpiperidin-4-yl)-3,4-dihydroquinoxaline-1(2H)-carboxamide] was tested, and the inhibition at 10 µM was 50 to 70%. Molecule `CN1CCC(CNC(=O)N2CCN(Cc3ccccc3F)c3ccccc32)CC1` [Compound 89, 4-(2-fluorobenzyl)-N-((1-methylpiperidin-4-yl)methyl)-3,4-dihydroquinoxaline-1(2H)-carboxamide] has an inhibition at 10 µM of 50 to 70%. `CN1CC[C@H](CNC(=O)N2CCN(Cc3ccccc3F)c3ccccc32)C1` [Compound 90, (R)-4-(2-fluorobenzyl)-N-((1-methylpyrrolidin-3-yl)methyl)-3,4-dihydroquinoxaline-1(2H)-carboxamide] was tested, and the inhibition at 10 µM was 30 to 50%. In the case of `O=C(N[C@@H]1CCNC1)N1CCN(Cc2ccc(F)cc2)c2ccccc21` [Compound 91, (R)-4-(4-fluorobenzyl)-N-(pyrrolidin-3-yl)-3,4-dihydroquinoxaline-1(2H)-carboxamide], the inhibition at 10 µM is reported as 50 to 70%. Molecule `O=C(NC1CCNCC1)N1CCN(Cc2ccc(F)cc2)c2ccccc21` [Compound 93, 4-(4-fluorobenzyl)-N-(piperidin-4-yl)-3,4-dihydroquinoxaline-1(2H)-carboxamide] has an inhibition at 10 µM of 50 to 70%. In the case of `O=C(N[C@@H]1CCNC1)N1CCN(Cc2ccc(Cl)cc2)c2ccccc21` [Compound 95, (R)-4-(4-chlorobenzyl)-N-(pyrrolidin-3-yl)-3,4-dihydroquinoxaline-1(2H)-carboxamide], the inhibition at 10 µM is reported as ≥ 70%. With `CC(C)CN[C@H]1CCN(C(=O)N2CCN(Cc3ccccn3)c3ccccc32)C1` [Compound 96, (S)-(3-(isobutylamino)pyrrolidin-1-yl)(4-(pyridin-2-ylmethyl)-3,4-dihydroquinoxalin-1(2H)-yl)methanone] the inhibition at 10 µM was 30 to 50%. Work on `CN(C)[C@H]1CCN(C(=O)N2CCN(Cc3ccccn3)c3ccccc32)C1` [Compound 97, (S)-(3-(dimethylamino)pyrrolidin-1-yl)(4-(pyridin-2-ylmethyl)-3,4-dihydroquinoxalin-1(2H)-yl)methanone] yielded an inhibition at 10 µM of 10 to 30%.
